Assay [1] concerns HepG2 cells. Particulars: cited from earlier work.
For assay [2], the system named is mutant lung cancer cells (PC-9). Further details: method as in Mao L. F. et al., 2020. Particulars: PC-9, stronger effect than icotinib; ref Mao L. F. et al., 2020; cited from earlier work.
Assay [3] has as its system wild-type lung cancer cells (A549). Set-up: method as in Mao L. F. et al., 2020. Conditions: A549, stronger effect than icotinib; ref Mao L. F. et al., 2020; cited from earlier work.
For assay [4], the system named is HepG2 cells. The assay can be described thus: MTT assay for cell proliferation and cytotoxicity, HepG2. Particulars: for IC50: HepG2, 48 h, MTT; for Inhibitory rate / ODtreated/ODcontrol: HepG2, fraction, per experiment; for Inhibition rate (16μM), 48 h, HepG2: preliminary screening, HepG2, 16 μM, mean±SD, unit not given. Set-up: key to Inhibitory rate: inhibition rate = 1 - mean A490 sample/mean A490 control (fraction). The format is cell-based. The protocol:
(§1) HepG2, HeLa, MCF-7, and KYSE-30 cells were grown in a humidified incubator at 37°C with 5% CO2 in DMEM supplemented with 10% fetal bovine serum (FBS), […] streptomycin, and 100 U/mL penicillin.
(§2) When HepG2 cells reached 80% confluence, they were treated with 1 mL of trypsin and resuspended at a density of 10^5 cells/mL. Then, 100 μL of cell suspension was seeded into each well of a 96-well plate and incubated in a humidified atmosphere. The different concentrations of KJ-5 and KJ-12 (0, 1, 2, 4, 8, 16, and 32 μM) were added to each well, and the cells were further incubated for 48 h. Afterward, 20 μL of the MTT solution (5 mg/mL) was added to each well, and incubation was continued for another 4 h. The supernatant was discarded, and 200 μL of the DMSO solution was added to each well. The plate was shaken for 10 min in the dark. The absorbance values were measured at 490 nm using an enzyme-linked detector. The cell inhibition rate (%) was calculated using the following formula: (1-Mean A490 sample/Mean A490 control) × 100%.

The subject of assay [5] is HeLa cells. Put plainly: MTT assay for cell proliferation, HeLa. The class given is cell-based. Further details: key to Inhibitory rate: inhibition rate = 1 - mean A490 sample/mean A490 control (fraction). Particulars: Hela; for Inhibitory rate / ODtreated/ODcontrol: fraction, per experiment; for Inhibition rate (16μM), 48 h, Hela: preliminary screening, mean±SD, unit not given. The protocol: as §1, §2
For orientation: Formazan colour is commonly taken as a measure of viable cells.

For assay [6], the system named is MCF-7 cells. The assay can be described thus: MTT assay for cell proliferation, MCF-7. The format is cell-based. Further details: key to Inhibitory rate / Inhibition rate: inhibition rate = 1 - mean A490 sample/mean A490 control (fraction). Conditions: for Inhibition rate (16μM), 48 h, MCF-7: preliminary screening, MCF-7, 16 μM, mean±SD, unit not given. On the procedure:
as §1, §2

For assay [7], the system named is KYSE-30 cells. The assay can be described thus: MTT assay for cell proliferation, KYSE-30. The format is cell-based. Further details: key to Inhibitory rate: inhibition rate = 1 - mean A490 sample/mean A490 control (fraction). Particulars: for Inhibitory rate: KYSE-30, given as fraction; for Inhibition rate (16μM), 48 h, KYSE-30: preliminary screening, KYSE-30, 16 μM, mean±SD, unit not given. On the procedure: as §1, §2

[8] abbreviates: MCF-7, fraction, per experiment.
The mark [9] stands for this setting: given as fraction, second of three experiments.
[10] abbreviates: given as fraction, third of three experiments.
Where [11] appears, read: KYSE-30, first of three experiments.
The mark [12] stands for this setting: KYSE-30, second of three experiments.
The mark [13] stands for this setting: KYSE-30, third of three experiments.

Values joined by “and” are separate entries in the source; they are usually repeats but may differ in a detail not shown here. Identical values can stand only once. Like-named read-outs stand apart in the source and are kept apart here.

By IC50 is commonly meant the concentration that inhibits the measured activity by half. Consider `COc1ccc(CN(C(=O)Cn2cc(COc3ccc4c(C)cc(=O)oc4c3)nn2)c2cc(OC)c(OC)c(OC)c2)cc1` [compound 1], for which the IC50 in assay [1] (ref Fu et al., 2019, read-out: IC50 for the inhibition of HepG2 cells) is 1.71 µM.

With `Cc1c(C(=O)Nc2ccc(Oc3cccc4[nH]ccc34)c(F)c2)nnn1-c1ccc(F)cc1` [compound 3], the IC50 in assay [1] (ref Wang L. et al., 2018, Chen et al., 2022b, read-out: IC50 for HepG2 cells) is 2.03 µM.

As to `O=C(NCc1cn(-c2ccc(I)cc2)nn1)Nc1ccc(Cl)c(C(F)(F)F)c1` [compound 4], the IC50 in assay [1] (ref Chen et al., 2022a, Oekchuae et al., 2022, read-out: IC50 for HepG2 cells) is 5.57 µM.

Consider `C[C@]12CC[C@@H]3c4ccc(O)cc4CC[C@H]3[C@@H]1CC[C@@]2(O)c1cn(CC(=O)c2ccc(Cl)cc2)nn1` [compound 2], for which the IC50 in assay [1] (ref Queiroz et al., 2019, read-out: IC50 for HepG2 cells) is 17.8 µM.

Turning to `Clc1cccc(-n2cc(-c3cccc(Nc4ncnc5cc6c(cc45)OCCOCCOCCO6)c3)nn2)c1` [compound 5], the “Inhibitory effect on PC-9 cells” value in assay [2] was “excellent inhibitory effects”. In assay [3], the “Inhibitory effect on A549 cells” value is on record as “excellent inhibitory effects”.

For `COc1c2n(cc(C(=O)Nc3cccc(-c4cn(-c5ccccc5Br)nn4)c3)c1=O)CC1OCC(C)N1C2=O` (stereo not drawn) [KJ-13], the IC50 in assay [4] is over 50 µM. The Inhibitory rate in assay [4] is 0.2436 and 0.2489 and 0.2333; in assay [5], 0.1723 and 0.1977 and 0.2047; in assay [6] (setting [8]), 0.2953; in assay [6] (setting [9]), 0.2534; in assay [7] (first of three experiments), 0.2898; in assay [7] (second of three experiments) it was 0.2542. This compound also displayed an Inhibitory rate in assay [7] (third of three experiments) of 0.2107. Further, the ODtreated/ODcontrol in assay [4] was 0.7564 and 0.7511 and 0.7667; in assay [5], 0.8277 and 0.8023 and 0.7953; in assay [6] (setting [8]), 0.7047; in assay [6] (second of three experiments), 0.7467; in assay [6] (third of three experiments), 0.7807; in assay [7] (setting [11]), 0.7102. For the same compound, the ODtreated/ODcontrol in assay [7] (setting [12]) was 0.7458; in assay [7] (setting [13]), 0.7893. In assay [4], the “Inhibition rate (16μM), 48 h, HepG2” value is recorded as 24.19±0.79. In addition, the “Inhibition rate (16μM), 48 h, Hela” value in assay [5] was 19.16±1.71. The same compound showed an Inhibition rate in assay [6] (setting [10]) of 0.2193. Moreover, the “Inhibition rate (16μM), 48 h, MCF-7” value in assay [6] amounted to 25.6±3.81. Further, the “Inhibition rate (16μM), 48 h, KYSE-30” value in assay [7] is on record as 25.16±3.96.

As to `COc1c2n(cc(C(=O)Nc3cccc(-c4cn(-c5cccc(C(F)(F)F)c5)nn4)c3)c1=O)C[C@H]1OC[C@H](C)N1C2=O` [KJ-8], half-maximal inhibition in assay [4] (IC50) was put at 9.41 ± 1.3 µM. Further, the Inhibitory rate in assay [4] is 0.6351 and 0.626 and 0.6586; in assay [5], 0.6574 and 0.6919 and 0.6249; in assay [6] (setting [8]) it was 0.6331; in assay [6] (setting [9]), 0.5745; in assay [7] (first of three experiments), 0.6038; in assay [7] (second of three experiments), 0.6049. The compound further yielded an Inhibitory rate in assay [7] (third of three experiments) of 0.5814. For the same compound, the ODtreated/ODcontrol in assay [4] was 0.3649 and 0.374 and 0.3414; in assay [5], 0.3426 and 0.3081 and 0.3751; in assay [6] (setting [8]) it was 0.3669; in assay [6] (second of three experiments), 0.4255; in assay [6] (third of three experiments), 0.442; in assay [7] (setting [11]) it was 0.3962. Also, the ODtreated/ODcontrol in assay [7] (setting [12]) is on record as 0.3951; in assay [7] (setting [13]) it was 0.4186. Further, the “Inhibition rate (16μM), 48 h, HepG2” value in assay [4] stood at 63.99±1.68. For the same compound, the “Inhibition rate (16μM), 48 h, Hela” value in assay [5] is 65.81±3.35. In addition, in assay [6] (setting [10]), the Inhibition rate is given as 0.558. In addition, the “Inhibition rate (16μM), 48 h, MCF-7” value in assay [6] turned out to be 58.85±3.95. Moreover, the “Inhibition rate (16μM), 48 h, KYSE-30” value in assay [7] was found to be 59.67±1.33.

As to `COc1c2n(cc(C(=O)Nc3cccc(-c4cn(-c5ccccc5F)nn4)c3)c1=O)C[C@H]1OC[C@H](C)N1C2=O` [KJ-2], the IC50 in assay [4] is 25.3 ± 2.07 µM. Further, the Inhibitory rate in assay [4] was 0.513 and 0.5093 and 0.5087; in assay [5], 0.497 and 0.5116 and 0.431; in assay [6] (setting [8]), 0.5009; in assay [6] (setting [9]) it was 0.4718; in assay [7] (first of three experiments), 0.4989; in assay [7] (second of three experiments), 0.4582. The compound further yielded an Inhibitory rate in assay [7] (third of three experiments) of 0.3717. Also, the ODtreated/ODcontrol in assay [4] is 0.487 and 0.4907 and 0.4913; in assay [5] it was 0.503 and 0.4884 and 0.569; in assay [6] (setting [8]), 0.4991; in assay [6] (second of three experiments) it was 0.5282; in assay [6] (third of three experiments), 0.5499; in assay [7] (setting [11]) it was 0.5011. Further, the ODtreated/ODcontrol is 0.5418 in assay [7] (setting [12]) and 0.6283 in assay [7] (setting [13]). Further, in assay [4], the “Inhibition rate (16μM), 48 h, HepG2” value is 51.03±0.23. The “Inhibition rate (16μM), 48 h, Hela” value in assay [5] came to 47.99±4.29. The Inhibition rate in assay [6] (setting [10]) turned out to be 0.4501. Besides, the “Inhibition rate (16μM), 48 h, MCF-7” value in assay [6] came out at 47.43±2.55. The “Inhibition rate (16μM), 48 h, KYSE-30” value in assay [7] is recorded as 44.92±6.50.

Consider `COc1c2n(cc(C(=O)Nc3cccc(-c4cn(-c5cccc(Cl)c5)nn4)c3)c1=O)CC1OCC(C)N1C2=O` (stereo not drawn) [KJ-17], for which the IC50 in assay [4] came to 9.83 ± 0.85 µM. The Inhibitory rate in assay [4] is 0.6231 and 0.6364 and 0.626; in assay [5], 0.5384 and 0.6161 and 0.6258; in assay [6] (setting [8]), 0.5766; in assay [6] (setting [9]), 0.4958; in assay [7] (first of three experiments), 0.5172; in assay [7] (second of three experiments) it was 0.6074. The Inhibitory rate in assay [7] (third of three experiments) was determined as 0.5319. Moreover, the ODtreated/ODcontrol in assay [4] was 0.3769 and 0.3636 and 0.374; in assay [5], 0.4616 and 0.3839 and 0.3742; in assay [6] (setting [8]) it was 0.4234; in assay [6] (second of three experiments), 0.5042; in assay [6] (third of three experiments), 0.3996; in assay [7] (setting [11]) it was 0.4828. Also, the ODtreated/ODcontrol is listed as 0.3926 in assay [7] (setting [12]) and 0.4681 in assay [7] (setting [13]). The “Inhibition rate (16μM), 48 h, HepG2” value in assay [4] was found to be 62.85±0.70. For the same compound, the “Inhibition rate (16μM), 48 h, Hela” value in assay [5] came to 59.34±4.79. Besides, in assay [6] (setting [10]), the Inhibition rate worked out at 0.6004. Also, in assay [6], the “Inhibition rate (16μM), 48 h, MCF-7” value is listed as 55.76±5.48. For the same compound, the “Inhibition rate (16μM), 48 h, KYSE-30” value in assay [7] came out at 55.22±4.84.

Compound `COc1c2n(cc(C(=O)Nc3cccc(-c4cn(-c5ccccc5I)nn4)c3)c1=O)CC1OCC(C)N1C2=O` (stereo not drawn) [KJ-15] registered an IC50 in assay [4] of 41.8 ± 1.22 µM. Besides, the Inhibitory rate was 0.3617 and 0.3472 and 0.3578 in assay [4]; 0.2424 and 0.3317 and 0.2684 in assay [5]; 0.3627 in assay [6] (setting [8]); 0.3633 in assay [6] (setting [9]); 0.4013 in assay [7] (first of three experiments); 0.4302 in assay [7] (second of three experiments). This compound gave an Inhibitory rate in assay [7] (third of three experiments) of 0.3963. Moreover, the ODtreated/ODcontrol in assay [4] was 0.6383 and 0.6528 and 0.6422; in assay [5] it was 0.7576 and 0.6683 and 0.7316; in assay [6] (setting [8]), 0.6373; in assay [6] (second of three experiments) it was 0.6367; in assay [6] (third of three experiments), 0.6686; in assay [7] (setting [11]), 0.5987. Further, the ODtreated/ODcontrol turned out to be 0.5698 in assay [7] (setting [12]) and 0.6037 in assay [7] (setting [13]). Further, the “Inhibition rate (16μM), 48 h, HepG2” value in assay [4] was determined as 35.56±0.75. Moreover, the “Inhibition rate (16μM), 48 h, Hela” value in assay [5] turned out to be 28.08±4.59. The Inhibition rate in assay [6] (setting [10]) amounted to 0.3314. Besides, the “Inhibition rate (16μM), 48 h, MCF-7” value in assay [6] was determined as 35.25±1.83. In assay [7], the “Inhibition rate (16μM), 48 h, KYSE-30” value is 40.93±1.83.
